Results published in patent US10245261B2, “Substituted indol-5-ol derivatives and their therapeutic applications” (NantBioScience, Inc., priority 2013, dated 2019).

Experiments:
Test in all cases: KinaseProfiler kinase assay
Type in all cases: biochemical
AMPKα2(h) = AMPKα2(h) (Homo sapiens, UniProt P54646)
Procedure, shortened: (§1)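 Compounds were serially diluted from DMSO into 20 mM MOPS buffer with EDTA, Brij-35, glycerol, β-mercaptoethanol and 1 mg/mL BSA. Reactions started with MgATP/[γ-33P]ATP, ran 40 min at room temperature, and phosphorylation was measured by scintillation counting after filtermat capture.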

CDK2/cyclinE(h) = CDK2/cyclinE(h) (Homo sapiens, UniProt P24941)
Procedure, shortened: as §1

CK2α2(h) = CK2α2(h) (Homo sapiens, UniProt P19784)
Procedure, shortened: as §1

CaMKIV(h) = CaMKIV(h) (Homo sapiens, UniProt Q16566)
Procedure, shortened: as §1

DMPK(h) = DMPK(h) (Homo sapiens, UniProt Q09013)
Procedure, shortened: as §1

DYRK2(h) = DYRK2(h) (Homo sapiens, UniProt Q92630)
Procedure, shortened: as §1

EGFR(T790M)(h) = EGFR(T790M)(h) (Homo sapiens, UniProt P00533, T790M)
Procedure, shortened: as §1

EphA4(h) = EphA4(h) (Homo sapiens, UniProt P54764)
Procedure, shortened: as §1

Fes(h) = Fes(h) (Homo sapiens, UniProt P07332)
Procedure, shortened: as §1

GRK5(h) = GRK5(h) (Homo sapiens, UniProt P34947)
Procedure, shortened: as §1

HIPK2(h) = HIPK2(h) (Homo sapiens, UniProt Q9H2X6)
Procedure, shortened: as §1

JNK1α1(h) = JNK1α1(h) (Homo sapiens, UniProt P45983)
Procedure, shortened: as §1

LKB1(h) = LKB1(h) (Homo sapiens, UniProt Q15831)
Procedure, shortened: as §1

MAPK2(h) = MAPK2(h) (Homo sapiens, UniProt P28482)
Procedure, shortened: as §1

Met(D1246H)(h) = Met(D1246H)(h) (Homo sapiens, UniProt P08581, D1228H)
Procedure, shortened: as §1

Met(M1268T)(h) = Met(M1268T)(h) (Homo sapiens, UniProt P08581, M1250T)
Procedure, shortened: as §1

Met(Y1248D)(h) = Met(Y1248D)(h) (Homo sapiens, UniProt P08581, Y1230D)
Procedure, shortened: as §1

Met(Y1248H)(h) = Met(Y1248H)(h) (Homo sapiens, UniProt P08581, Y1230H)
Procedure, shortened: as §1

PAK5(h) = PAK5(h) (Homo sapiens, UniProt Q9P286)
Procedure, shortened: as §1

PDK1(h) = PDK1(h) (Homo sapiens, UniProt O15530)
Procedure, shortened: as §1

[1] = target: PI3 Kinase (p110α/p85α)(h) (Homo sapiens, UniProt P42336)
Procedure, shortened: as §1

[2] = target: PI3 Kinase (p113α)(H1047R)/p85α)(m) (Mus musculus, UniProt P42337, H1047R)
Procedure, shortened: as §1

PKBβ(h) = PKBβ(h) (Homo sapiens, UniProt P31751)
Procedure, shortened: as §1

PKCγ(h) = PKCγ(h) (Homo sapiens, UniProt P05129)
Procedure, shortened: as §1

PTK5(h) = PTK5(h) (Homo sapiens, UniProt P42685)
Procedure, shortened: as §1

RIPK2(h) = RIPK2(h) (Homo sapiens, UniProt O43353)
Procedure, shortened: as §1

Rsk1(r) = Rsk1(r) (Rattus norvegicus, UniProt Q63531)
Procedure, shortened: as §1

SAPK2b(h) = SAPK2b(h) (Homo sapiens, UniProt Q15759)
Procedure, shortened: as §1

Src(1-530)(h) = target: T1, Src(1-530)(h) (Homo sapiens, UniProt P12931)
T1 construct: Src(1-530)(h)
Procedure, shortened: as §1

TAK1(h) = TAK1(h) (Homo sapiens, UniProt O43318)
Procedure, shortened: as §1

VRK2(h) = VRK2(h) (Homo sapiens, UniProt Q86Y07)
Procedure, shortened: as §1

Chain of AMPKα2(h) (P54646 whole entry): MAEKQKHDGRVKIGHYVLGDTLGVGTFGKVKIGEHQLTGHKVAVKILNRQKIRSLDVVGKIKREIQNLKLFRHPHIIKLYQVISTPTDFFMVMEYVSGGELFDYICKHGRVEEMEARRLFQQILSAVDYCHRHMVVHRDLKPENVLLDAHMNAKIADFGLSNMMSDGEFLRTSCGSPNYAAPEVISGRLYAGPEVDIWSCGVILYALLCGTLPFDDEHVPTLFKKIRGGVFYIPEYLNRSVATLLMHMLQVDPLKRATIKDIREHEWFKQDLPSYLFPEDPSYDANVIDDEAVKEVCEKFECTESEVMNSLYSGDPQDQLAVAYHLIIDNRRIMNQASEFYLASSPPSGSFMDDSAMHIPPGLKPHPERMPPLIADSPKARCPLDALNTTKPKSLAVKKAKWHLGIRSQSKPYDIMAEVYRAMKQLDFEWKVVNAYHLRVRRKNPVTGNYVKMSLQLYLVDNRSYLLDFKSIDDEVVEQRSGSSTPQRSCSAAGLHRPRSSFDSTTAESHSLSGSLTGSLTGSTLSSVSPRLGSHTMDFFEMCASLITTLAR
Chain of AMPKα2(h) (Q9Y478 whole entry partner): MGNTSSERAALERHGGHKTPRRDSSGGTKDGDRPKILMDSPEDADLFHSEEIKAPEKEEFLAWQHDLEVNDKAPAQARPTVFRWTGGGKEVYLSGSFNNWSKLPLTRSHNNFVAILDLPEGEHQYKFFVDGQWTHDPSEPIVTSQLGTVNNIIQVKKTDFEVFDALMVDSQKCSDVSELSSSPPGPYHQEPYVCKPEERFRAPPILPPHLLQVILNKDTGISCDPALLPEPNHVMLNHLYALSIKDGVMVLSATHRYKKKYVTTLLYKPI
Chain of AMPKα2(h) (P54619 whole entry partner): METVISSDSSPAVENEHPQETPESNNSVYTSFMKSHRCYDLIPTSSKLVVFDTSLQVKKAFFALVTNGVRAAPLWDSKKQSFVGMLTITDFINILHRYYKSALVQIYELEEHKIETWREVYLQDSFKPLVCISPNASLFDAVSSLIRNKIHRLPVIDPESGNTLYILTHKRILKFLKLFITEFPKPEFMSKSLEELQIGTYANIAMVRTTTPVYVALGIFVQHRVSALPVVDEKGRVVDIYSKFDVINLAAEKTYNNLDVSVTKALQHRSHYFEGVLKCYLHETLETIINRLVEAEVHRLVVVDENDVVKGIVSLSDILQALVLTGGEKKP
Chain of SAPK2b(h) (Q15759 whole entry): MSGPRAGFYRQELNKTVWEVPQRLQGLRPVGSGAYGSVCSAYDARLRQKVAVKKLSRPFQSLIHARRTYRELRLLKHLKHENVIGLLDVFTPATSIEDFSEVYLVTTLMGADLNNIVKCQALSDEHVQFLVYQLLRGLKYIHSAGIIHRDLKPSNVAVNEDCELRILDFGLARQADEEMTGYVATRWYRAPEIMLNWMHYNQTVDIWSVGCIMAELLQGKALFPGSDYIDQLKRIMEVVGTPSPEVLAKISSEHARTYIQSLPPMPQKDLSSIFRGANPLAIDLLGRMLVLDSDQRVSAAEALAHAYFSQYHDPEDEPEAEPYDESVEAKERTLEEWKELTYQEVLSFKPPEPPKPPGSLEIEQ
Chain of JNK1α1(h) (P45983 1-384 isoform P45983-2): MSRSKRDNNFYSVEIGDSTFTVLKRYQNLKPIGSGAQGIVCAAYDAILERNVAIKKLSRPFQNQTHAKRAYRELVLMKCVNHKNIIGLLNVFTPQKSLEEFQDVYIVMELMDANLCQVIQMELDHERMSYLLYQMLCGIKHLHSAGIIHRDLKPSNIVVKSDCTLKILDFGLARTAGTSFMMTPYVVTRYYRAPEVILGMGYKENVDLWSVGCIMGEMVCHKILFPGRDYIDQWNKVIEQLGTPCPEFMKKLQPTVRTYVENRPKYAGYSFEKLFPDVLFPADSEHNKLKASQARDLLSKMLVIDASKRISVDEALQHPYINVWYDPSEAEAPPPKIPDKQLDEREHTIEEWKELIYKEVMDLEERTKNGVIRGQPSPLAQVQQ
Chain of Met(M1268T)(h) (P08581 25-1408 isoform P08581-2 M1268T): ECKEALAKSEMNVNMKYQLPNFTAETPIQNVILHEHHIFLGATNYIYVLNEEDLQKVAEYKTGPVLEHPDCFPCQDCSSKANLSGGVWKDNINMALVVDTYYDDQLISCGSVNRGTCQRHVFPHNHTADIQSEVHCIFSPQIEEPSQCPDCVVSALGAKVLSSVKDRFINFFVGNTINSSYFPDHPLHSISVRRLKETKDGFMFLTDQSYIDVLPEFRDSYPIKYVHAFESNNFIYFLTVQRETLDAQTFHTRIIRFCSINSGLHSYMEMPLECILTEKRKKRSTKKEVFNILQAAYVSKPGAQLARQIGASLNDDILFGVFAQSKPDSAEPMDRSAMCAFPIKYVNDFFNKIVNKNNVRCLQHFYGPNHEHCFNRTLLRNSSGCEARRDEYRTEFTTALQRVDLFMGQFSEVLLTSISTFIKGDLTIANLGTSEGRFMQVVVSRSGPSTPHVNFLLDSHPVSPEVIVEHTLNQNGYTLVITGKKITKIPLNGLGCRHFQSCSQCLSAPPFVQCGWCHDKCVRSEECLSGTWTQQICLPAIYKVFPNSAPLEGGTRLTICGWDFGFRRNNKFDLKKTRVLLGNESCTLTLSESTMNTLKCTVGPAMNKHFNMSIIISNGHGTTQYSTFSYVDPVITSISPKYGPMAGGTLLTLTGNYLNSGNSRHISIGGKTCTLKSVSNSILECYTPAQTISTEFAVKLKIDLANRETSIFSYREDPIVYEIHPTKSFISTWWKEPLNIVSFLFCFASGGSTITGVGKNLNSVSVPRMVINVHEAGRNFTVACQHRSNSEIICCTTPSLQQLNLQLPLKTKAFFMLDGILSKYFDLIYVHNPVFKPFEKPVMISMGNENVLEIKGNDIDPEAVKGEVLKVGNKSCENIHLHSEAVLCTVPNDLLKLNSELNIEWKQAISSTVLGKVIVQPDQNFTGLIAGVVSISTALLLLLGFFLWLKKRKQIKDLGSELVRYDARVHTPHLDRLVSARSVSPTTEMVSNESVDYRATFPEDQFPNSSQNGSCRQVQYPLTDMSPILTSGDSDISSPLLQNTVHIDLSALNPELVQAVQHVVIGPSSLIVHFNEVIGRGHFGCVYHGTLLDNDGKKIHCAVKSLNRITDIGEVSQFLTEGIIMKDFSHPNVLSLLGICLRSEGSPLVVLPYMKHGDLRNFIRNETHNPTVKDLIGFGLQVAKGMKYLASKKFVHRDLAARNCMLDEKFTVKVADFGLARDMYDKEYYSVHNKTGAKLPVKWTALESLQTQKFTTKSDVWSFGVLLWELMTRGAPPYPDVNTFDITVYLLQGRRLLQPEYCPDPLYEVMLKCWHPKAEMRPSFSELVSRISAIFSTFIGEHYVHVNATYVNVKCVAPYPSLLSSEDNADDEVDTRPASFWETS
Chain of Met(Y1248D)(h) (P08581 25-1408 isoform P08581-2 Y1248D): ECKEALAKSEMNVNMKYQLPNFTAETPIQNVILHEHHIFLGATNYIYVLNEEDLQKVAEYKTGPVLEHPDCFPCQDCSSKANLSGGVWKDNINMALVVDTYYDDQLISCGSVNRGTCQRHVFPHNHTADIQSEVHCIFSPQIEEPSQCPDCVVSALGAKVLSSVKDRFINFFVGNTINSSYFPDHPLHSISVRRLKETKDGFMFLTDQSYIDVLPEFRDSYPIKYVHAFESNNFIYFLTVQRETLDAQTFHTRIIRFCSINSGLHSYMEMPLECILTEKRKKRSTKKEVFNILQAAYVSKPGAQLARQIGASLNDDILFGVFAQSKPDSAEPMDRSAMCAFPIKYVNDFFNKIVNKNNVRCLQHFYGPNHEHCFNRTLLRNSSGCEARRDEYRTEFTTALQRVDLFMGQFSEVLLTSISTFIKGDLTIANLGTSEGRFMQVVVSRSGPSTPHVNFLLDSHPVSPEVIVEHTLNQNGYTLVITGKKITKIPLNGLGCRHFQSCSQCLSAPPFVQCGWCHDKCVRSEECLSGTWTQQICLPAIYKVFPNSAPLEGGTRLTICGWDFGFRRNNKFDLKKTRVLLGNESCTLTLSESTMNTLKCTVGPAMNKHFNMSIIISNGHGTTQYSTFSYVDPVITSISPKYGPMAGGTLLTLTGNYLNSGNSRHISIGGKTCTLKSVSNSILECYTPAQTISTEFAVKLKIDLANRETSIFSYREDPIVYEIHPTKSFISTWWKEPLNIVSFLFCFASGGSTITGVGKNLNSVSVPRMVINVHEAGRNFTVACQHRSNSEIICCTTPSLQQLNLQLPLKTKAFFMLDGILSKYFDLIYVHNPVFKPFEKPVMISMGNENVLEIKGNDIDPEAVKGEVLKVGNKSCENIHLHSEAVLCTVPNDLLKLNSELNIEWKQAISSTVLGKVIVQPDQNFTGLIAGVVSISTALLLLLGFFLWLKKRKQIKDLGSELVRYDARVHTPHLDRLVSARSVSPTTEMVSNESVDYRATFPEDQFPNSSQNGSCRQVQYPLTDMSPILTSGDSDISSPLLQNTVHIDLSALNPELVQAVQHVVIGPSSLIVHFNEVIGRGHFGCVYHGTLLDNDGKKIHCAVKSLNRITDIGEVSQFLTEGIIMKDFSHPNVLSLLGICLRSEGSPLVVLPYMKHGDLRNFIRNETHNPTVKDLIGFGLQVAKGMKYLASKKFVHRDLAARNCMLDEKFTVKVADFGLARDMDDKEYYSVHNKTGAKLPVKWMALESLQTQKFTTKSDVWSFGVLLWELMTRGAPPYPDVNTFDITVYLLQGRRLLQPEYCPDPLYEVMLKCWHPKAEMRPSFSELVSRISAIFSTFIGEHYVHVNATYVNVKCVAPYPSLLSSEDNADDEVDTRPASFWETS
Chain of TAK1(h) (O43318 1-303): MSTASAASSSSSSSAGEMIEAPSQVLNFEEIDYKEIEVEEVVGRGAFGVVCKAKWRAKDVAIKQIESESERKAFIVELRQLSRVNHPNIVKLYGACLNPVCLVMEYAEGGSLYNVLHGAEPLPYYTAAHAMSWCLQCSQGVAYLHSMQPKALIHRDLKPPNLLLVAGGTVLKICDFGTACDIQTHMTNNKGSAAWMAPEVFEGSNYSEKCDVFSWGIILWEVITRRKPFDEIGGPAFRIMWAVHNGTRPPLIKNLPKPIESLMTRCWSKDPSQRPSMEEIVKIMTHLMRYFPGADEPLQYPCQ

## Cc1cc2c(F)c(Oc3nc(Nc4cc(C5CC5)[nH]n4)cc(N4CCN(C)CC4)n3)ccc2[nH]1 [Compound 10]
AMPKα2(h)
  inhibition at 0.1 µM: 90%
CDK2/cyclinE(h)
  inhibition at 0.1 µM: 1%
CK2α2(h)
  inhibition at 0.1 µM: -13%
CaMKIV(h)
  inhibition at 0.1 µM: -25%
DMPK(h)
  inhibition at 0.1 µM: -4%
DYRK2(h)
  inhibition at 0.1 µM: -6%
EGFR(T790M)(h)
  inhibition at 0.1 µM: 17%
EphA4(h)
  inhibition at 0.1 µM: 52%
Fes(h)
  inhibition at 0.1 µM: 48%
GRK5(h)
  inhibition at 0.1 µM: 18%
HIPK2(h)
  inhibition at 0.1 µM: -2%
JNK1α1(h)
  inhibition at 0.1 µM: -7%
LKB1(h)
  inhibition at 0.1 µM: 14%
MAPK2(h)
  inhibition at 0.1 µM: -8%
Met(D1246H)(h)
  inhibition at 0.1 µM: 74%
Met(M1268T)(h)
  inhibition at 0.1 µM: 91%
Met(Y1248D)(h)
  inhibition at 0.1 µM: 80%
Met(Y1248H)(h)
  inhibition at 0.1 µM: 69%
PAK5(h)
  inhibition at 0.1 µM: 60%
PDK1(h)
  inhibition at 0.1 µM: 13%
[1]
  inhibition at 0.1 µM: -1%
[2]
  inhibition at 0.1 µM: -1%
PKBβ(h)
  inhibition at 0.1 µM: -35%
PKCγ(h)
  inhibition at 0.1 µM: -8%
PTK5(h)
  inhibition at 0.1 µM: 72%
RIPK2(h)
  inhibition at 0.1 µM: 1%
Rsk1(r)
  inhibition at 0.1 µM: 16%
SAPK2b(h)
  inhibition at 0.1 µM: -2%
Src(1-530)(h)
  inhibition at 0.1 µM: 101%
TAK1(h)
  inhibition at 0.1 µM: 38%
VRK2(h)
  inhibition at 0.1 µM: 34%

## Cc1cc2c(F)c(Oc3nc(Nc4cc(C5CC5)[nH]n4)cc(N4CCNCC4)n3)ccc2[nH]1 [Compound 11, N-(5-cyclopropyl-1H-pyrazol-3-yl)-2-((4-fluoro-2-methyl-1H-indol-5-yl)oxy)-6-(piperazin-1-yl)pyrimidin-4-amine]
AMPKα2(h)
  inhibition at 0.1 µM: 88%
CDK2/cyclinE(h)
  inhibition at 0.1 µM: 3%
CK2α2(h)
  inhibition at 0.1 µM: 8%
CaMKIV(h)
  inhibition at 0.1 µM: -1%
DMPK(h)
  inhibition at 0.1 µM: -16%
DYRK2(h)
  inhibition at 0.1 µM: -1%
EGFR(T790M)(h)
  inhibition at 0.1 µM: 30%
EphA4(h)
  inhibition at 0.1 µM: 47%
Fes(h)
  inhibition at 0.1 µM: 54%
GRK5(h)
  inhibition at 0.1 µM: -2%
HIPK2(h)
  inhibition at 0.1 µM: 0%
JNK1α1(h)
  inhibition at 0.1 µM: 11%
LKB1(h)
  inhibition at 0.1 µM: -1%
MAPK2(h)
  inhibition at 0.1 µM: -13%
Met(D1246H)(h)
  inhibition at 0.1 µM: 93%
Met(M1268T)(h)
  inhibition at 0.1 µM: 72%
Met(Y1248D)(h)
  inhibition at 0.1 µM: 76%
Met(Y1248H)(h)
  inhibition at 0.1 µM: 91%
PAK5(h)
  inhibition at 0.1 µM: 68%
PDK1(h)
  inhibition at 0.1 µM: 3%
[1]
  inhibition at 0.1 µM: 5%
[2]
  inhibition at 0.1 µM: 0%
PKBβ(h)
  inhibition at 0.1 µM: -9%
PKCγ(h)
  inhibition at 0.1 µM: -5%
PTK5(h)
  inhibition at 0.1 µM: 72%
RIPK2(h)
  inhibition at 0.1 µM: 13%
Rsk1(r)
  inhibition at 0.1 µM: 14%
SAPK2b(h)
  inhibition at 0.1 µM: -6%
Src(1-530)(h)
  inhibition at 0.1 µM: 101%
TAK1(h)
  inhibition at 0.1 µM: 44%
VRK2(h)
  inhibition at 0.1 µM: 4%
